Laboratory results reported in ChEMBL document CHEMBL5120864, “Targeting Enhancer of Zeste Homolog 2 for the Treatment of Hematological Malignancies and Solid Tumors: Candidate Structure-Activity Relationships Insights and Evolution Prospects” (J Med Chem, 2022).

Tests used:
WSUDLCL2 = assay: cells; type: functional, cell-based; conditions: Homo sapiens
[1] = biological target: Histone-lysine N-methyltransferase EZH2 (Homo sapiens, UniProt Q15910, Y641F)
[2] = biological target: T1, Histone-lysine N-methyltransferase EZH2 (Homo sapiens, UniProt Q15910)
[3] = biological target: T1, Histone-lysine N-methyltransferase EZH2; remark: listed apart in the source
[4] = biological target: Histone-lysine N-methyltransferase EZH2 (Homo sapiens, UniProt Q15910, Y641N)
KARPAS-422 [5] = assay: cells; type: functional; conditions: Homo sapiens
HeLa = assay: cells; type: functional, cell-based; conditions: Homo sapiens
[6] = biological target: T2, Protein cereblon/Histone-lysine N-methyltransferase EZH2 (Homo sapiens, UniProt Q15910+Q96SW2); type: cell-based, DOHH-2
[7] = biological target: T2, Protein cereblon/Histone-lysine N-methyltransferase EZH2; type: cell-based, OCILY7
Pfeiffer = assay: cells; type: functional, cell-based; conditions: Homo sapiens
SU-DHL-6 = assay: cells; type: functional, cell-based; conditions: Homo sapiens
[8] = biological target: T1, Histone-lysine N-methyltransferase EZH2; remark: listed apart in the source
HepG2 = assay: cells; type: functional, cell-based; conditions: Homo sapiens, HepG2, 24 h
MCF7 = assay: cells; type: functional, cell-based; conditions: Homo sapiens, MCF7, 24 h
PC-3 = assay: cells; type: functional, cell-based; conditions: Homo sapiens, PC-3, 24 h
KARPAS-422 [9] = assay: cells; type: functional, cell-based; conditions: Homo sapiens
[10] = biological target: T1, Histone-lysine N-methyltransferase EZH2; remark: listed apart in the source
MDA-MB-231 = assay: cells; type: functional, cell-based; conditions: Homo sapiens, MDA-MB-231, 72 h

T1 sequence (Q15910 whole entry): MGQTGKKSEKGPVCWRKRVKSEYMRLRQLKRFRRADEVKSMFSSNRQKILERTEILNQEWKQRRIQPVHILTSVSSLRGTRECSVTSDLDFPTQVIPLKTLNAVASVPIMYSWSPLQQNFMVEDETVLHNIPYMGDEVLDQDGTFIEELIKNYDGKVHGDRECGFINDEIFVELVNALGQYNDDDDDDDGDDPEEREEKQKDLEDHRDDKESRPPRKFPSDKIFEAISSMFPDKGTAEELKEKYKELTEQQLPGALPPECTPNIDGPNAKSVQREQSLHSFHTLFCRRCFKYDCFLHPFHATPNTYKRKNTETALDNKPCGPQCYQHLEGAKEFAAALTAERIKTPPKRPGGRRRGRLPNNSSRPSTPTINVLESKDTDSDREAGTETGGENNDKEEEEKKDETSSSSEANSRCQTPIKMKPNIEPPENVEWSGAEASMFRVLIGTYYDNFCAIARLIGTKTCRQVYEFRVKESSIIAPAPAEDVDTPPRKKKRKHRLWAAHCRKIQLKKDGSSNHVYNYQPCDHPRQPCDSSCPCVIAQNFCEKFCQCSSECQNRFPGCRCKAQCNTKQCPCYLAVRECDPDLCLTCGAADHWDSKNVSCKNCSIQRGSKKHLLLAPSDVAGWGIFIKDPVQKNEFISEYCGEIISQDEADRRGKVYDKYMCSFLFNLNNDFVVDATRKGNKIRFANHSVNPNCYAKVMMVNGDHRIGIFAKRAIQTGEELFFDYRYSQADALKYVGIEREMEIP
Chain of Histone-lysine N-methyltransferase EZH2 (Homo sapiens, UniProt Q15910, Y641N) (Q15910 whole entry Y641N): as the sequence (Q15910 whole entry) above, with Y641N counted along it
Chain of Histone-lysine N-methyltransferase EZH2 (Homo sapiens, UniProt Q15910, Y641F) (Q15910 whole entry Y641F): as the sequence (Q15910 whole entry) above, with Y641F counted along it
T2 sequence (Q15910 whole entry): as the sequence (Q15910 whole entry) above
T2 sequence (Q96SW2 whole entry): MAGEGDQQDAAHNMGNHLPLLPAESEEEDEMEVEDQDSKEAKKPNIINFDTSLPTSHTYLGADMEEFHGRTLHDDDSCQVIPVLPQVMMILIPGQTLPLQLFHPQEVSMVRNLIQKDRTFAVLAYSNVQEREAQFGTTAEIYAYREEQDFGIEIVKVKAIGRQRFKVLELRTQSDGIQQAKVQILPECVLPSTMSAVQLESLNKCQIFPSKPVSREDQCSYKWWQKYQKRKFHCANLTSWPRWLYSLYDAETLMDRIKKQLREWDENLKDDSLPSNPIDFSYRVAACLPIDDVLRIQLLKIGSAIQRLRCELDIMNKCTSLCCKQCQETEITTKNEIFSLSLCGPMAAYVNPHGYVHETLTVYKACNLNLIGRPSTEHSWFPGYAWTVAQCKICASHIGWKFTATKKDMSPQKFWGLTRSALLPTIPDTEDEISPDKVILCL

CCN(c1cc(C#CCN2CCOCC2)cc(C(=O)NCc2c(C)cc(C)[nH]c2=O)c1C)[C@H]1CC[C@H](N(C)CCOC)CC1
IC50 (WSUDLCL2): 385 nM

CCN(c1cc(C#CC2CCN(C)CC2)cc(C(=O)NCc2c(C)cc(C)[nH]c2=O)c1C)C1CCOCC1
IC50 [1]: 8.4 nM

COc1cc(C)[nH]c(=O)c1CNC(=O)c1c(C)n([C@H](C)C2CCN(CC(C)(F)F)CC2)c2ccccc12
IC50 [1]: < 1 nM
IC50 [2]: < 1 nM

CCN(c1cc(Br)cc(C(=O)NCc2c[nH]c(C)cc2=O)c1C)[C@H]1CC[C@H](N(C)C)CC1
IC50 [3]: 40 nM

CCN(c1cc(-c2ccc(CN3CCOCC3)cc2)cc(C(=O)NCc2c(Cl)cc(C)c[n+]2[O-])c1C)C1CCOCC1
IC50 [3]: < 100 nM

C=CCC1(S(=O)(=O)N2CC(C)c3c(C(=O)NCc4c(C)cc(C)[nH]c4=O)cc(-c4ccc(N5CCN(C)CC5)nc4)cc32)CC1 (stereo unspecified)
IC50 [1]: 1530 nM
IC50 [4]: 1530 nM

CSc1cc(C)[nH]c(=O)c1CN1CCc2c(Cl)c3c(c(C)c2C1=O)O[C@@](C)([C@H]1CC[C@H](N(C)C)CC1)O3
GI50 (KARPAS-422 [5]): 5.7 nM
EC50 (HeLa): 0.849 nM

C=CC(=O)Nc1nn(C(C)c2ccccc2)c(C)c1C(=O)NCc1c(C)cc(C)[nH]c1=O (stereo unspecified)
IC50 [3]: 64 nM

C=CCC1(S(=O)(=O)N2CCc3c(C(=O)NCc4c(C)cc(C)[nH]c4=O)cc(-c4ccc(N5CCN(C)CC5)nc4)cc32)CC1
IC50 [1]: 2590 nM
IC50 [4]: 2590 nM

CCCc1cc(C)[nH]c(=O)c1CNC(=O)c1cc(-c2ccc(N3CCNCC3)cc2)cc2c1ccc(=O)n2C(CC)CC
IC50 [1]: 9 nM
IC50 [2]: 11 nM

C=CCC1(S(=O)(=O)n2cc(C)c3c(C(=O)NCc4c(OC)cc(C)[nH]c4=O)cc(-c4ccc(N5CCN(C)CC5)nc4)cc32)CC1
IC50 [1]: 5 nM
IC50 [4]: 27000 nM

CCN(c1cc(-c2ccc(CN3CCN(C(=O)CCCCCNc4cccc5c4C(=O)N(C4CCC(=O)NC4=O)C5=O)CC3)cc2)cc(C(=O)NCc2c(C)cc(C)[nH]c2=O)c1C)C1CCOCC1 (stereo unspecified)
IC50 [6]: 100 nM
IC50 [7]: 100 nM

CCN(c1cc(-c2ccc(CN3CCOCC3)cc2)cc(C(=O)NCc2c3c(c(C)[nH]c2=O)CCCCCC3)c1C)C1CCOCC1
IC50 (Pfeiffer): 21000 nM
IC50 (SU-DHL-6): > 30000 nM

CCc1c(C(=O)NCc2c(C)cc(C)[nH]c2=O)cc2c(cnn2C)c1N(CC)[C@H]1CC[C@H](N2CC(OC)C2)CC1
IC50 (Pfeiffer): 76 nM

CSc1cc(C)[nH]c(=O)c1CNC(=O)c1cc(Cl)c2c(c1C)O[C@@](C)([C@H]1CC[C@H](N(C)C)CC1)O2
GI50 (KARPAS-422 [5]): 4 nM
EC50 (HeLa): 0.51 nM

Cc1cc(C)c(CNC(=O)c2cnn(C(C)C)c2C)c(=O)[nH]1
IC50 [8]: 343000 nM

CCC(C)n1cc(C)c2c(C(=O)NCC3=C(O)NN(CC)C3C)cc(-c3ccc(N4CCNCC4)nc3)cc21 (stereo unspecified)
IC50 [1]: 1470 nM
IC50 [2]: 230 nM

CCN(c1cc(-c2ccc(CN3CCOCC3)cc2)cc(C(=O)NCc2c3c(c(C)[nH]c2=O)CCCC3)c1C)C1CCOCC1
IC50 (Pfeiffer): 19500 nM
IC50 (SU-DHL-6): 20000 nM

CCN(c1cc(-c2ccc(CN3CCOCC3)cc2)cc(C(=O)NCc2c3c(c(C)[nH]c2=O)CCCCC3)c1C)C1CCOCC1
IC50 (Pfeiffer): 27000 nM
IC50 (SU-DHL-6): > 30000 nM

Cc1cc(C)c(CN2CCc3c(Br)c4c(c(C)c3C2=O)OC(C)([C@H]2CC[C@H](N(C)C)CC2)O4)c(=O)[nH]1 (stereo partly specified)
GI50 (Pfeiffer): 0.21 nM
GI50 (KARPAS-422 [5]): 1.2 nM

COc1ccc(C2SCCC(=O)N2Nc2nc3cc(Cl)c(Cl)cc3[nH]2)cc1 (stereo unspecified)
IC50 (HepG2): 68600 nM
IC50 (MCF7): 76800 nM
IC50 (PC-3): 71800 nM

Cc1cc(C)c(CNC(=O)c2cc(-c3ccc(N4CCN(CCOCCC(=O)Nc5cccc6c5C(=O)N(C5CCC(=O)NC5=O)C6=O)CC4)nc3)c3c(cnn3C(C)C)c2)c(=O)[nH]1 (stereo unspecified)
IC50 [3]: 7 nM

CC1=CCOc2c(Br)cc(C(=O)NCc3c(C)cc(C)[nH]c3=O)cc2C1
IC50 [3]: > 1000 nM

CCCc1cc(C)[nH]c(=O)c1CNC(=O)c1cc(-c2ccc(N3CCOCC3)nc2)c2ccn(C(C)C)c2c1C
IC50 [3]: 0.01 nM

Cc1cc(C)c(CNC(=O)c2cc3c(c(-c4ccc(N5CCNCC5)cc4)c2)OC(C)(C)C3)c(=O)[nH]1
IC50 [3]: < 500 nM

CCCc1cc(C)[nH]c(=O)c1CNC(=O)c1cc(-c2ccc(N3CCNCC3)nc2)cc2c([C@H](C)CC)ncn12
IC50 [1]: 8.13 nM
IC50 [2]: 76.1 nM

CCN(c1cc(-c2cnc(N3CCN(C)CC3)nc2)cc2c(NCc3c(C)cc(C)[nH]c3=O)nccc12)[C@H]1CC[C@H](N(C)C)CC1
IC50 [1]: < 5 nM
IC50 (Pfeiffer): 249 nM

C=CCC1(S(=O)(=O)n2nc(C)c3c(C(=O)NCc4c(C)cc(C)[nH]c4=O)cc(-c4ccc(N5CCN(C)CC5)nc4)cc32)CC1
IC50 [1]: 585 nM
IC50 [4]: 2810 nM

O=C1CCSC(c2ccc([N+](=O)[O-])cc2)N1Nc1nc2ccccc2[nH]1 (stereo unspecified)
IC50 (HepG2): 55800 nM
IC50 (MCF7): 47600 nM
IC50 (PC-3): 64600 nM

[2H]C([2H])([2H])Sc1cc(C)[nH]c(=O)c1CNC(=O)c1c(C)n([C@H](C)C2CCC(OC)CC2)c2ccc(-c3cnn(C)c3)cc12 (stereo partly specified)
IC50 [3]: 0.4 nM
IC50 (SU-DHL-6): 71.1 nM

Cc1cc2c(c(=O)[nH]1)CNC(=O)c1cc(Cl)cc3c1c(cn3C(C)C)/C=C/CC2
IC50 [3]: 40 nM

CCCc1cc(C)n(C)c(=O)c1CN(C)C(=O)c1cc(-c2ccc(N3CCN(C(C)C)CC3)nc2)cc2c1CNN2C(C)C
IC50 [3]: 13000 nM

CCN(c1cc(Cl)cc(C(=O)NCc2c[nH]c(C)cc2=O)c1C)[C@H]1CC[C@H](N(C)C)CC1
IC50 [3]: 3 nM

O=C1CCSC(c2ccc(Cl)cc2)N1Nc1nc2ccccc2[nH]1 (stereo unspecified)
IC50 (HepG2): 53300 nM
IC50 (MCF7): 74300 nM
IC50 (PC-3): 66900 nM

Cc1cc(C)c(CNC(=O)c2cc(Br)c3c(c2C)O[C@@](C)([C@H]2CC[C@H](N(C)C)CC2)O3)c(=O)[nH]1
GI50 (KARPAS-422 [5]): 4 nM

C=CC(=O)Nc1nn(Cc2ccccc2)c(C)c1C(=O)NCc1c(C)cc(C)[nH]c1=O
IC50 [3]: 5240 nM

CCN(c1cc(C(=O)NCc2c(OC)cc(C)[nH]c2=O)nc2c(-c3ccnc(N(C)C)c3)cnn12)C1CCOCC1
IC50 [1]: ≤ 100 nM

C[C@H](C(=O)NC1COC1)c1cnc(NC[C@H]2CC[C@H](Nc3ccc4ccnc(Cl)c4n3)CC2)nc1
IC50 (KARPAS-422 [9]): 0.3 nM

CCN(c1cc(C(=O)NCc2c(OC)cc(C)[nH]c2=O)nc2c(-c3ccnc(NC)c3)cnn12)C1CCN(CC(F)(F)F)CC1
IC50 [1]: ≤ 100 nM

CCN(c1cc(Cl)cc2c1C/C=C/CCc1cc(C)[nH]c(=O)c1CNC2=O)C1CCC(F)(F)CC1
IC50 [3]: 16 nM

C=CC(=O)Nc1nn(Cc2ccc(-c3ccccc3)cc2)c(C)c1C(=O)NCc1c(C)cc(C)[nH]c1=O
IC50 [3]: 109 nM

Cc1cc(C)c(CNC(=O)c2cc(-c3ccc(CN4CCN(C)CC4)cc3)cc3c2OCCN3C2CCCCC2)c(=O)[nH]1
IC50 (Pfeiffer): 4210 nM

Cc1cc(C)c(CNC(=O)c2cnn(-c3ccccc3)c2)c(=O)[nH]1
IC50 [8]: > 400000 nM

[2H]C([2H])(NC(=O)c1c(C)n([C@H](C)C2CCC(OC)CC2)c2ccccc12)c1c(SC)cc(C)[nH]c1=O (stereo partly specified)
IC50 [3]: 0.54 nM
IC50 (SU-DHL-6): 9.94 nM

COc1ccc(C2SCCC(=O)N2Nc2nc3cc(C)c(C)cc3[nH]2)cc1 (stereo unspecified)
IC50 (HepG2): 68300 nM
IC50 (MCF7): 59700 nM
IC50 (PC-3): 66300 nM

Cc1cc(-c2ccc(N3CCN(C)CC3)nc2)c2ccc(C(=O)NCc3c(OC(C)C)cc(C)[nH]c3=O)c(C)c2n1
IC50 [1]: 13 nM
IC50 [2]: 1.29 nM

COc1cc(C)[nH]c(=O)c1CN1CCn2ccc3cc(-c4c(C)noc4C)c(Cl)c(c32)C1=O
IC50 (WSUDLCL2): 3.8 nM
IC50 (KARPAS-422 [9]): 52 nM

Cc1cc(Cl)c(CNC(=O)c2cc(Cl)c3c(c2C)OC(C)(C2CCC(N4CC(OC5CC5)C4)CC2)O3)c(=O)[nH]1 (stereo unspecified)
GI50 (KARPAS-422 [5]): 5 nM
EC50 (HeLa): 0.52 nM

COC1CN([C@H]2CC[C@H]([C@@H](C)c3sc4c(c3C)C(=O)N(Cc3c(C)cc(C)[nH]c3=O)CCC4)CC2)C1
IC50 [1]: 0.92 nM
IC50 [10]: 2.65 nM
IC50 [2]: 0.0097 nM

O=C1CCSC(c2ccccc2Cl)N1Nc1nc2ccccc2[nH]1 (stereo unspecified)
IC50 (HepG2): 13600 nM
IC50 (MCF7): 20300 nM
IC50 (PC-3): 9410 nM

CCN(c1cc(-c2ccc(CN3CCOCC3)cc2)cc(C(=O)NCC2C(=O)NC(C)c3cccc(F)c32)c1C)C1CCOCC1 (stereo unspecified)
IC50 [10]: 500 nM

COc1cc2nc(N3CCCN(C)CC3)nc(NC3CCN(Cc4ccccc4)CC3)c2cc1OC
IC50 (MDA-MB-231): 9600 nM

Cc1cc(C)c(CNC(=O)c2cc(Cl)c3c(c2C)O[C@@](C)([C@H]2CC[C@H](N(C)C)CC2)O3)c(=O)[nH]1 [VALEMETOSTAT]
GI50 (KARPAS-422 [5]): 4.8 nM
